Source: article PMC9271048, “Probing strigolactone perception mechanisms with rationally designed small-molecule agonists stimulating germination of root parasitic weeds” (Nature Communications, 2022)
Where two headings read alike, the source gives them in different places.

Legend:
ShHTL7 [1] = target: T1, ShHTL7 (Striga hermonthica, UniProt A0A0M3PNA2); assay: Competitive inhibition of ShHTL7 with Yoshimulactone Green (YLG) as substrate; format: biochemical
Experimental: Based on the structural feature of the lead compound 2h, we selected three regions to perform further modification (Supplementary Fig. 6), to try to further improve bioactivity. Insertion of a carbonyl group between the bicyclo[2.2.1]hept-5-en-2-yl group and the piperazine ring was detrimental to binding affinity (Supplementary Fig. 6, region A). Removal of an oxygen atom in region B was found unfavorable to binding affinity as well. Therefore, we focused on modifying the benzene ring (region C) for 2h. A series of compounds with different groups at region C was synthesized (Supplementary Scheme 1). […] As SPR just measures the binding ability, another independent assay by using Yoshimulactone Green (YLG) as the fluorescent substrate was performed to determine the half-maximal inhibitory concentration (IC50) of these compounds against ShHTL7[22].
The excitation and emission wavelengths of YLG are 480 and 520 nm, respectively. We used a fluorescence spectrophotometer (CARY Eclipse) to detect the fluorescence intensity change of YLG during the enzymatic hydrolysis assay process. All the testing compounds and YLG were dissolved in DMSO and prepared as stock solutions just before use. […] The changes of fluorescence at 520 nm of each well were recorded every 1 min for 30 min. Using the reaction mixture without adding enzyme and tested compounds as the background control. After subtracting the background hydrolysis, a linear fluorescence increase in 8 min was used for further inspection. The IC50 values were determined via fitting relative inhibition percentages with the varying concentrations of compounds in Microsoft Excel.

ShHTL7 [2] = target: T1, ShHTL7; assay: biochemical; format: binding
Experimental: We used a sensitive, high-throughput Surface plasmon resonance (SPR) method to examine the binding affinities of the 51 candidates to the recombinant ShHTL7 protein, which was immobilized on the CM5 sensor chip. rac-GR24 was used as a positive control.
The interactions of small molecules with recombinant ShHTL7 were evaluated using the Biacore T200 system (GE Healthcare, USA) at 25 °C[47]. The purified ShHTL7 protein was immobilized on a CM5 sensor chip using the standard amine coupling procedure. […] PBS-P (10 mM phosphate buffer, 2.7 mM KCl, 137 mM NaCl, 0.05% Surfactant P20) containing 0.5% DMSO was used as the running buffer. For the screening experiments, candidates with different structures at 50 μM in the running buffer were injected individually at a flow rate of 30 μL min^−1. For binding affinity studies, compounds with different concentrations in running buffer were used. During the experiments, both the contact and dissociation times were set as 1 min. Data analysis was performed using the Biacore Evaluation Software (T200 Version 2.0). The affinity values (KD) were obtained by the kinetics analysis or the steady-state affinity method.

P. aegyptiaca seeds = assay: P. aegyptiaca seed germination assay; format: in vivo, Phelipanche aegyptiaca; design: P. aegyptiaca germination EC50 values, source data average: unit not given here; settings: for P. aegyptiaca germination(%): Supplementary Table 1, compounds tested at 10 μM, means ± SD, n = 3; for P. aegyptiaca germination EC50 values, source data average: source data of Fig. 2c and Supplementary Fig. 8b, average of 3
Experimental: P. aegyptiaca seeds were harvested from Xinjiang province, China in 2017. The seeds were surface sterilized using 1% NaClO solution for 2 min and then washed with distilled water six times. For seed germination assay, about 20 pieces of glass fiber-filter paper discs (15 mm diameter, Whatman GF/B) were placed separately on two layers of filter papers (9 cm diameter, Whatman) in a Petri dish. Five milliliters of distilled water was added to each Petri dish to wet the papers. Approximately 40–90 sterilized seeds were spread onto each glass fiber-filter paper disc. After the seeds were conditioned in the dark at 25 °C for 4 days[48], glass fiber-filter paper discs were blotted dry on filter papers (9 cm) and transferred to the wells of 24-well cell culture plates. The testing compounds were dissolved in acetone and diluted with H2O (VH2O/Vacetone = 999/1) just before use[49]. rac-GR24 and 1‰ acetone solution were used as positive and negative controls, respectively. One hundred microliters of the test solution was added to each well of the plates, and all treatments were performed in three biological repeats. The plates were sealed and incubated in the dark at 25 °C for a week. The experiments were performed at least three times. The germinated seeds were observed by using an electronic magnifier at ×20 magnification.

ShHTL7 [3] = target: T1, ShHTL7; assay: ShHTL7-hydrolysis reaction analysis (HPLC); format: biochemical; settings: authors' response to reviewer
Experimental: Compounds 4a, (R)- and (S)-4a, 4g-i, and rac-GR24 were dissolved in DMSO and prepared as stock solution ([…]) just before use. A 200 μL of the reaction solution consisting of PBS buffer (pH 7.3), 10 μM samples, and 10 μg recombinant ShHTL7 or its mutants was incubated at 30 °C for 30 min; with the reaction solution (200 μL) containing PBS buffer (pH 7.3) and 10 μM samples as the blank control[40],[52]. Subsequently, the reaction was terminated by adding 200 μL of methanol, and then the reaction mixture was shaken for 10 s and centrifuged at 5310 × g for 60 s. The supernatant was filtered and the remaining amount of samples was analyzed by HPLC. The relative percentages of hydrolysis were obtained by using the amount of compounds in blank control as reference.
Supplementary Fig. 11. Hydrolysis of 4a, (R)-4a, (S)-4a, 4g-i, and rac-GR24 by ShHTL7 at 30 °C for 30 min. The remaining amounts of compounds in recombinant ShHTL7 protein and buffer solution were determined by HPLC analysis. The relative percentages of hydrolysis were calculated by using the amount of compounds in the buffer as reference. The error bar indicates SD (n = 3 biologically independent experiments).
(1 picture or pasted object on this page, not shown here)

[4] = IC50 (Supplementary Table 1), YLG used as the substrate, means ± SD, n = 3
[5] = IC50, competitive ShHTL7 inhibition (YLG), source data average, wild-type ShHTL7, average of 3, source data of Fig. 2a,b, Supplementary Figs. 8a, 9a, 20b
[6] = wild-type ShHTL7, average of 3, source data of Fig. 2a,b, Supplementary Figs. 8a, 9a, 20b, read-out: IC50, competitive ShHTL7 inhibition (YLG), source data average
[7] = Supplementary Table 7, binding affinities between ShHTL7 and agonists by SPR, read-out: KD/μM
[8] = YLG used as the substrate, means ± SD, n = 3, read-out: IC50 (Supplementary Table 1)

T1 sequence (A0A0M3PNA2 entry or part of it): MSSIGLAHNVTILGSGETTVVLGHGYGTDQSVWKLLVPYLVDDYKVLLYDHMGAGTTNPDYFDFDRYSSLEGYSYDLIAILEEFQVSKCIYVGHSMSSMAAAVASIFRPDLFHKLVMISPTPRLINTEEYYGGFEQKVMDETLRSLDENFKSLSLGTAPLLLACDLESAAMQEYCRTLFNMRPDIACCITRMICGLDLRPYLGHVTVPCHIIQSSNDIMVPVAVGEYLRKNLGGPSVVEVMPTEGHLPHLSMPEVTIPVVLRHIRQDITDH

Compound	Kd (ShHTL7 [2]) [µM]	P. aegyptiaca germination(%) (P. aegyptiaca seeds)	IC50 (ShHTL7 [1]; [8]) [µM]	other results
O=C(COc1c(F)c(F)c(F)c(F)c1F)N1CCN(CC2CC3C=CC2C3)CC1 (centres unmarked) [3g]	0.47	5.7		IC50 (ShHTL7 [1]; [4]): 0.23 ± 0.03 µM; IC50 (ShHTL7 [1]; [5]): 2.08 µM
CC1=CC(OC(=O)N2CCN(CC3CC4C=CC3C4)CC2)OC1=O (centres unmarked) [4c]				IC50 (ShHTL7 [1]; YLG as substrate, text and Fig. 2, read-out: IC50, competitive ShHTL7 inhibition (YLG assay)): 4.56 ± 0.78 µM; IC50 (ShHTL7 [1]; [6]): 4.56 µM; Kd (ShHTL7 [2]; [7]): 13.9 ± 2.6 µM; EC50 (P. aegyptiaca seeds; in vivo, read-out: EC50, P. aegyptiaca seed germination): 0.00226 µM; P. aegyptiaca germination EC50 values, source data average (P. aegyptiaca seeds): 8.757
Cc1ccc(OCC(=O)N2CCN(C(=O)C3CC4C=CC3C4)CC2)cc1 (centres unmarked) [3a]		19.4	35.6 ± 3.84	
CC1=CC(OC(=O)N2CCN(C(=O)COc3ccc(F)cc3C)CC2)OC1=O (centres unmarked) [4d]				IC50 (ShHTL7 [1]; [6]): 3.78 µM; Kd (ShHTL7 [2]; [7]): 0.82 ± 0.26 µM; P. aegyptiaca germination EC50 values, source data average (P. aegyptiaca seeds): 8.181
Cc1cc([N+](=O)[O-])ccc1OCC(=O)N1CCN(CC2CC3C=CC2C3)CC1 (centres unmarked) [3h]		22.0	10 ± 0.59	
O=C(c1cccs1)N1CCN(CC2CC=CCC2)CC1 (centres unmarked) [2b]	10.5 ± 0.67			
Cc1ccc(CC(=O)N2CCN(CC3CC4C=CC3C4)CC2)cc1 (centres unmarked) [3b]		8.9	23.2 ± 1.59	
COc1cc(C(=O)N2CCN(CC3CC4C=CC3C4)CC2)cc(OC)c1OC (centres unmarked) [2c]	6.66 ± 0.2			
Cc1cc(Br)ccc1OCC(=O)N1CCN(CC2CC3C=CC2C3)CC1 (centres unmarked) [3f]	0.18	8.3		IC50 (ShHTL7 [1]; [4]): 7.45 ± 1.03 µM; IC50 (ShHTL7 [1]; [5]): 6.11 µM
O=C(COc1ccccc1)N1CCN(CC2CC3C=CC2C3)CC1 (centres unmarked) [3l]		26.3	18 ± 1.32	
O=C(COc1ccc([N+](=O)[O-])cc1Cl)N1CCN(CC2CC3C=CC2C3)CC1 (centres unmarked) [3i]		33.5	11.6 ± 0.61	
Cc1ccccc1OCC(=O)N1CCN(CC2CC3C=CC2C3)CC1 (centres unmarked) [3m]		29.7	9.16 ± 1.2	
O=C(COc1cc(Cl)ccc1Cl)N1CCN(CC2CC3C=CC2C3)CC1 (centres unmarked) [3k]		43.5	32.2 ± 1.99	
O=C(COc1ccc(Cl)cc1)N1CCN(CC2CC3C=CC2C3)CC1 (centres unmarked) [3o]		21.4	22 ± 2.43	
C1=CC2CC1CC2CN1CCNCC1 (centres unmarked) [ZJT1]		1.6		IC50 (ShHTL7 [1]; YLG used as the substrate, read-out: IC50 (Supplementary Table 1), symbol): > 400 µM
O=C(c1ccc([N+](=O)[O-])cc1)N1CCN(CC2CC3C=CC2C3)CC1 (centres unmarked) [2e]	8.77 ± 0.11			hydrolysis by ShHTL7 (ShHTL7 [3]): could not be hydrolyzed by ShHTL7
